Source: ChEMBL document CHEMBL1131277, “Functionalized 1,3-teraryls as a new class of hepatoprotectants. Part V” (1998)

Key:
Type in all cases: functional
[1] = test system: Rattus norvegicus; test: Hepatoprotective activity against thioacetamide-induced toxicity in various levels of serum ALP in rats was evaluated at 10 mg/kg dose (p.o. x 7 days)
[2] = species: Rattus norvegicus; test: Percent protection afforded by the compound in serum alkaline phosphatase (APL) level was determined; parameters: concentration or dose not given beside the values
[3] = test system: Rattus norvegicus; test: Hepatoprotective activity against thioacetamide-induced toxicity in various levels of serum GOT in rats was evaluated at 10 mg/kg dose (p.o. x 7 days)
[4] = species: Rattus norvegicus; test: Percent protection afforded by the compound in serum glutamate oxaloacetate transaminase (GOT) level was determined; parameters: concentration or dose not given beside the values
[5] = species: Rattus norvegicus; test: Percent protection afforded by the compound in serum glutamate pyruvate transaminase (GPT) level was determined; parameters: concentration or dose not given beside the values
[6] = test system: Rattus norvegicus; test: Hepatoprotective activity against thioacetamide-induced toxicity in various levels of serum GPT in rats was evaluated at 10 mg/kg dose (p.o. x 7 days)

Compound	Enzyme level [1] [U l-1]	Protection [2] [%]	Enzyme level [3] [U l-1]	Protection [4] [%]	Protection [5] [%]	Enzyme level [6] [U l-1]	Enzyme level ([1]; route oral) [U l-1]	Enzyme level ([3]; route oral) [U l-1]	Enzyme level ([6]; route oral) [U l-1]
SILYMARIN	220	52	150	64	61	218			
COC(=O)c1c(SC)cc(-c2ccc(F)c(Cl)c2)cc1-c1cccc([N+](=O)[O-])c1		18		18	12		304.1	211.6	370.2
COC(=O)c1c(SC)cc(-c2ccc(Cl)cc2)cc1-c1ccc(Cl)c(Cl)c1		42		66	49		245.1	147.3	258.1
COC(=O)c1c(SC)cc(-c2ccc(F)cc2)cc1-c1cccc([N+](=O)[O-])c1		17		20	15		307.2	208.9	360.1
COC(=O)c1c(SC)cc(-c2ccc(Cl)cc2)cc1-c1ccc(Br)cc1		8		20	15		330.2	208.3	361.5
COC(=O)c1c(SC)cc(-c2ccc(Cl)cc2)cc1-c1cccc([N+](=O)[O-])c1		60		64	70		203.6	149.9	190.1
COC(=O)c1c(SC)cc(-c2ccc(F)cc2)cc1-c1ccc(Cl)c(Cl)c1		46		57	71		235.5	159.3	186.3
COC(=O)c1c(SC)cc(-c2ccc(Br)cc2)cc1-c1ccc(Br)cc1		10		25	36		324.2	202.1	295.4
COC(=O)c1c(SC)cc(-c2ccc(Cl)cc2)cc1-c1ccc(Cl)cc1		33		37	51		268.2	186.3	248.5
COC(=O)c1c(SC)cc(-c2ccc(Cl)cc2)cc1-c1ccc([N+](=O)[O-])cc1		24		5	44		289.9	229.4	270.4
COC(=O)c1c(SC)cc(-c2ccc(Cl)cc2)cc1-c1ccc(F)cc1		6		10	5		334.2	222.3	392.3
COC(=O)c1c(SC)cc(-c2ccc(F)cc2)cc1-c1ccc(F)cc1		3		5	12		341.2	229.1	370.2
